Test: Binding energy by using the equation deltaG obsd = -RT ln KD
Assay type: ADME

Compared with `N/C=C(\OP(=O)(O)O)C(=O)O`, `O=P(O)(O)O` [PHOSPHORIC ACID] is lower in Binding energy: 10.5 kcal/mol for the first, 7.7 kcal/mol for the second.

Compared with `O=C(CCCN1CCC(O)(c2ccc(Cl)cc2)CC1)c1ccc(F)cc1` [HALOPERIDOL], `CC(C)(C)NC[C@H](O)COc1nsnc1N1CCOCC1` [TIMOLOL] is higher in Binding energy: 12.3 kcal/mol for the first, 13 kcal/mol for the second.

Compared with `CC[C@H](C)[C@H](N)C(=O)O` [ISOLEUCINE], `Nc1cc(Cl)c(N=C2NCCN2)c(Cl)c1` [APRACLONIDINE] is higher in Binding energy: 7.1 kcal/mol for the first, 12.7 kcal/mol for the second.

First: Oc1ccccc1 [PHENOL]
Second: O=C(O)CC(CC(=O)CP(=O)(O)O)C(=O)O (stereo not drawn)
The Binding energy of the first is lower: 2.7 kcal/mol for the first, 10.9 kcal/mol for the second.

First: C[C@]12CCC(=O)C[C@@H]1CC[C@@H]1[C@@H]2CC[C@]2(C)[C@@H](O)CC[C@@H]12 (stereo in doubt; 155) [STANOLONE]
Second: CC[C@@H]1C(=O)OC[C@@H]1Cc1cncn1C [PILOCARPINE]
The Binding energy of the first is higher: 13.1 kcal/mol for the first, 10.1 kcal/mol for the second.

Going from `Cc1csc(Cl)c1NC1=NCCN1` [TIAMENIDINE] to `O=C(CCCN1CCC(n2c(O)nc3ccccc32)CC1)c1ccc(F)cc1` [BENPERIDOL], the Binding energy rises from 11.8 kcal/mol to 12.2 kcal/mol.

First: CCc1nc(N)nc(N)c1-c1ccc(Cl)cc1 [PYRIMETHAMINE]
Second: CNC(=O)Oc1cccc2ccccc12 [CARBARIL]
The Binding energy of the first is higher: 9.7 kcal/mol for the first, 6.4 kcal/mol for the second.

Compared with `CCCCC1C(=O)N(c2ccccc2)N(c2ccccc2)C1=O` [PHENYLBUTAZONE], `CN(C)CCC=C1c2ccccc2CCc2ccccc21` [AMITRIPTYLINE] is higher in Binding energy: 7.3 kcal/mol for the first, 12.3 kcal/mol for the second.

Going from `CN1[C@@H]2CC[C@H]1C[C@@H](OC(c1ccccc1)c1ccccc1)C2` [BENZTROPINE] to `O=C(O)Cc1ccccc1Oc1ccc(Cl)cc1Cl` [FENCLOFENAC], the Binding energy falls from 12.6 kcal/mol to 9.2 kcal/mol.

First: CC(C)Cc1ccc(C(C)C(=O)O)cc1 (stereo not drawn) [IBUPROFEN]
Second: CCCCC[C@H](O)/C=C/[C@@H]1[C@@H](C/C=C\CCCC(=O)O)[C@@H](O)C[C@H]1O [DINOPROST]
The Binding energy of the first is lower: 8.3 kcal/mol for the first, 9.2 kcal/mol for the second.

First: COC(=O)[C@@H]1[C@H]2C[C@H]3c4[nH]c5ccccc5c4CCN3C[C@@H]2CC[C@@H]1O [YOHIMBINE]
Second: Cc1ccc(F)cc1NC1=NCCN1 [FLUTONIDINE]
The Binding energy of the first is higher: 11.9 kcal/mol for the first, 11.4 kcal/mol for the second.

First: Cc1cccc(C)c1N=C1NCCCS1 [XYLAZINE]
Second: CC(=O)[C@H]1CC[C@H]2[C@@H]3CCC4=CC(=O)CC[C@]4(C)[C@H]3CC[C@]12C [PROGESTERONE]
The Binding energy of the first is higher: 11.3 kcal/mol for the first, 10.5 kcal/mol for the second.

Going from `CC12CCC(CC1=O)C2(C)C` (stereo not drawn) [CAMPHOR] to `O=C(O)Cc1cc(I)c(Oc2ccc(O)c(I)c2)c(I)c1` [TIRATRICOL], the Binding energy falls from 11.4 kcal/mol to 9.3 kcal/mol.

Going from `CO[C@]12CC[C@@]3(C[C@@H]1[C@](C)(O)C(C)(C)C)[C@H]1Cc4ccc(O)c5c4[C@@]3(CCN1CC1CC1)[C@H]2O5` [BUPRENORPHINE] to `CC(Oc1c(Cl)cccc1Cl)C1=NCCN1` (stereo not drawn) [LOFEXIDINE], the Binding energy falls from 13.4 kcal/mol to 11.8 kcal/mol.

Compared with `CSc1ccc2c(c1)N(CCC1CCCCN1C)c1ccccc1S2` (stereo not drawn) [THIORIDAZINE], `O=C1NCN(c2ccccc2)C12CCN(CCCC(c1ccc(F)cc1)c1ccc(F)cc1)CC2` [FLUSPIRILENE] is higher in Binding energy: 11 kcal/mol for the first, 11.6 kcal/mol for the second.

Compared with `CCCCC[C@H](O)/C=C/[C@H]1[C@H](O)CC(=O)[C@@H]1CCCCCCC(=O)O` [ALPROSTADIL], `CO/C=C/C(N)C(=O)O` (stereo not drawn) is lower in Binding energy: 11.2 kcal/mol for the first, 5.9 kcal/mol for the second.

First: Clc1cccc(Cl)c1N=C1NCCN1 [CLONIDINE]
Second: Clc1ccc(C(c2ccc(Cl)cc2)C(Cl)(Cl)Cl)cc1 [CHLOROPHENOTHANE]
The Binding energy of the first is higher: 12.3 kcal/mol for the first, 7.6 kcal/mol for the second.

Going from `NC(=O)C1(N2CCCCC2)CCN(CCCC(=O)c2ccc(F)cc2)CC1` [PIPAMPERONE] to `C[C@@H]1O[C@@H](O[C@H]2C[C@@H](O)[C@]3(CO)[C@H]4[C@H](O)C[C@]5(C)[C@@H](C6=CC(=O)OC6)CC[C@]5(O)[C@@H]4CC[C@]3(O)C2)[C@H](O)[C@H](O)[C@H]1O` [OUABAIN], the Binding energy falls from 12.4 kcal/mol to 11.5 kcal/mol.

First: CN1CCC[C@H]1c1cccnc1 [NICOTINE]
Second: O=C(O)CCCC[C@@H]1SC[C@@H]2NC(=O)N[C@@H]21 [BIOTIN]
The Binding energy of the first is lower: 11.2 kcal/mol for the first, 20.5 kcal/mol for the second.

Compared with `O=C(O)C(COP(=O)(O)O)[C@H](O)[C@H](O)COP(=O)(O)O` (stereo partly drawn), `N=C(N)N/N=C/c1c(Cl)cccc1Cl` [GUANABENZ] is higher in Binding energy: 8.2 kcal/mol for the first, 12.3 kcal/mol for the second.

Compared with `O=C1CN=C(c2ccccn2)c2cc(Br)ccc2N1` [BROMAZEPAM], `COC1C2CCN(CC3CC3)C1Cc1ccc(O)cc12` (stereo not drawn) is higher in Binding energy: 10.3 kcal/mol for the first, 12.2 kcal/mol for the second.

First: CC(=O)CC(c1ccccc1)c1c(O)c2ccccc2oc1=O (stereo not drawn) [WARFARIN]
Second: O=C1Nc2ccc(Cl)cc2C(c2ccccc2Cl)=NC1O (stereo not drawn) [LORAZEPAM]
The Binding energy of the first is lower: 6.9 kcal/mol for the first, 11.6 kcal/mol for the second.

Going from `CCCCCc1ccc2nc(N)nc(N)c2c1C` to `CC(C)Cc1cnc2nc(N)nc(N)c2n1`, the Binding energy falls from 18.7 kcal/mol to 12.3 kcal/mol.

Going from `CC(N)Cc1ccccc1` (stereo not drawn) [AMPHETAMINE] to `O=C(O)Cc1ccccc1Oc1ccc(Cl)c(O)c1Cl`, the Binding energy rises from 6.8 kcal/mol to 8.7 kcal/mol.

Compared with `Cc1ccc(N(CC2=NCCN2)c2cccc(O)c2)cc1` [PHENTOLAMINE], `CNC(=O)Oc1cccc2c1OC(C)(C)C2` [CARBOFURAN] is lower in Binding energy: 11.9 kcal/mol for the first, 4.6 kcal/mol for the second.

Going from `CCC(C)CN` (stereo not drawn) to `COc1ccc(CN(CCN(C)C)c2ccccn2)cc1` [PYRILAMINE], the Binding energy rises from 2.8 kcal/mol to 12.7 kcal/mol.

First: CC(C)NCC(O)COc1cccc2ccccc12 (stereo not drawn) [PROPRANOLOL]
Second: COc1cc(Cc2cnc(N)nc2N)cc(OC)c1OC [TRIMETHOPRIM]
The Binding energy of the first is higher: 12.8 kcal/mol for the first, 11.5 kcal/mol for the second.

Going from `Cc1cc(C(C)(C)C)c(O)c(C)c1CC1=NCCN1` [OXYMETAZOLINE] to `O=P(O)(O)OC[C@H]1O[C@](O)(CO)[C@@H](O)[C@@H]1O`, the Binding energy falls from 12.2 kcal/mol to 5.7 kcal/mol.

First: COc1cccc(OC)c1OCCNCC1COc2ccccc2O1 (stereo not drawn)
Second: O=C1CCN([C@H]2C[C@H](O)[C@@H](COP(=O)(O)O)O2)C(=O)N1
The Binding energy of the first is higher: 12.9 kcal/mol for the first, 10.9 kcal/mol for the second.

Going from `CC(=O)OC(Cc1ccc(C=O)cc1)c1ccc(C=O)cc1` (stereo not drawn) to `CN(C)CCc1c[nH]c2ccc(O)cc12` [BUFOTENINE], the Binding energy rises from 6.4 kcal/mol to 9.4 kcal/mol.

Compared with `CCN` [ETHYLAMINE], BIBROCATHOL is higher in Binding energy: 2.2 kcal/mol for the first, 10.7 kcal/mol for the second.

Going from `CN(Cc1cnc2nc(N)nc(N)c2n1)c1ccc(C(=O)N[C@@H](CCC(=O)O)C(=O)O)cc1` [METHOTREXATE] to `N=C(N)NC(=O)Cc1c(Cl)cccc1Cl` [GUANFACINE], the Binding energy falls from 12.9 kcal/mol to 11.9 kcal/mol.

First: C[N+](C)(C)CCOC(N)=O.[Cl-] [CARBACHOL]
Second: O=c1cccc2n1C[C@@H]1CNC[C@H]2C1 [CYTISINICLINE]
The Binding energy of the first is lower: 10.7 kcal/mol for the first, 12.1 kcal/mol for the second.

Compared with `NC(=O)N1c2ccccc2C=Cc2ccccc21` [CARBAMAZEPINE], `Nc1ncnc2c1ncn2[C@@H]1O[C@H](CO)C[C@H]1O` [CORDYCEPIN] is higher in Binding energy: 5.9 kcal/mol for the first, 8.2 kcal/mol for the second.

Compared with `COc1cc(CCN)cc(OC)c1OC` [MESCALINE], `CNCCC(Oc1ccccc1OC)c1ccccc1` (stereo not drawn) [NISOXETINE] is higher in Binding energy: 7.1 kcal/mol for the first, 11.5 kcal/mol for the second.

Going from `O=C1CCCN1CC#CCN1CCCC1` [OXOTREMORINE] to `CCC1(CC)C(=O)NC(=O)N(C)C1=O` [METHARBITAL], the Binding energy falls from 11.7 kcal/mol to 6.8 kcal/mol.

Going from `O=P(O)(O)O[C@H]1OC[C@@H](O)[C@H](O)[C@H]1O` to `NCCc1ccc(O)c(O)c1` [DOPAMINE], the Binding energy rises from 6.2 kcal/mol to 11.8 kcal/mol.

Compared with `N[C@@H](Cc1cc(I)c(Oc2cc(I)c(O)c(I)c2)c(I)c1)C(=O)O` [LEVOTHYROXINE], `C=C1CC[C@H](O)C/C1=C/C=C1\CCC[C@]2(C)[C@@H]([C@H](C)CCC(O)C(C)(C)O)CC[C@@H]12` (stereo partly drawn) is higher in Binding energy: 10.3 kcal/mol for the first, 13.2 kcal/mol for the second.

First: C[C@]12C[C@H](O)[C@H]3[C@@H](CCC4=CC(=O)CC[C@@]43C)[C@@H]1CC[C@@H]2C(=O)CO [CORTICOSTERONE]
Second: O=P(O)(O)CCCCO
The Binding energy of the first is higher: 11.6 kcal/mol for the first, 3.3 kcal/mol for the second.

Going from `NCc1cc(=O)[nH]o1` [MUSCIMOL] to `CC(Cc1ccccc1)NCCC(c1ccccc1)c1ccccc1` (stereo not drawn) [PRENYLAMINE], the Binding energy falls from 11.9 kcal/mol to 8.2 kcal/mol.

Going from `NCCc1c[nH]c2ccccc12` [TRYPTAMINE] to `CC[C@@H](CO)NC(=O)[C@@H]1C=C2c3cccc4c3c(cn4C)C[C@H]2N(C)C1` [METHYSERGIDE], the Binding energy rises from 7.9 kcal/mol to 12.3 kcal/mol.

Going from `O=C1NC(=O)C(c2ccccc2)(c2ccccc2)N1` [PHENYTOIN] to `COc1ccc(CCN2CCC(Nc3nc4ccccc4n3Cc3ccc(F)cc3)CC2)cc1` [ASTEMIZOLE], the Binding energy rises from 11.2 kcal/mol to 11.3 kcal/mol.

First: CN(C)CCC=C1c2ccccc2COc2ccccc21 [DOXEPIN]
Second: NC1(C(=O)O)CCCC1 [CYCLOLEUCINE]
The Binding energy of the first is higher: 13.1 kcal/mol for the first, 4.9 kcal/mol for the second.

First: c1ccc2c(c1)OCC(CN1CCCCC1)O2 (stereo not drawn) [PIPEROXAN]
Second: OC[C@H]1O[C@@H](n2cnc3c2N=CNC[C@H]3O)[C@H](O)[C@@H]1O [COFORMYCIN]
The Binding energy of the first is lower: 10.7 kcal/mol for the first, 15 kcal/mol for the second.

First: O=C(O)Cc1ccccc1Nc1c(Cl)cccc1Cl [DICLOFENAC]
Second: NC(CO)Cc1ccccc1 (stereo not drawn)
The Binding energy of the first is higher: 9.6 kcal/mol for the first, 7.1 kcal/mol for the second.

Compared with `C[C@]12CCC(=O)C=C1CC[C@@H]1[C@@H]2[C@@H](O)C[C@]2(C=O)[C@@H](C(=O)CO)CC[C@@H]12` [ALDOSTERONE], `NC[C@H](O)c1ccc(O)c(O)c1` [NOREPINEPHRINE] is lower in Binding energy: 12.7 kcal/mol for the first, 12.1 kcal/mol for the second.

`OC1(c2ccc(Cl)c(C(F)(F)F)c2)CCN(CCCC(c2ccc(F)cc2)c2ccc(F)cc2)CC1` [PENFLURIDOL] gave a Binding energy of 9.9 kcal/mol.
